# Results from patent US20200347043A1, “MODULATORS OF THE INTEGRATED STRESS PATHWAY” (Calico Life Sciences LLC, priority 2019, published 2020).
# System: HEK293T cells carrying the ATF4 luciferase reporter
# Assay: ATF4-Luc assay (in vitro model of VWMD)
# Assay type: cell-based, human
# Conditions: Homo sapiens, HEK-293T, 1 μg/mL tunicamycin, 7 hours, One Glo luminescence
# Outline: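 Stable HEK293T line expressing firefly luciferase behind the human ATF4 5′-UTR, treated with 1 μg/mL tunicamycin plus compound for 7 hours. Luminescence read with One Glo; EC50 determined.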
row,SMILES,EC50 [nM]
1,"O=C(NC12CC(n3cc(C4CCC4)cn3)(C1)C2)[C@@H]1C[C@@H](O)c2cc(Cl)ccc2O1 [Compound 291, (2S,4R)-6-chloro-N-[3-(4-cyclobutyl-1H-pyrazol-1-yl)bicyclo[1.1.1]pentan-1-yl]-4-hydroxy-3,4-dihydro-2H-1-benzopyran-2-carboxamide]",500 to 2000
2,"O=C(N[C@@H]1CC[C@@H](c2ncc([C@H]3C[C@@H](OC(F)(F)F)C3)o2)OC1)[C@H]1C[C@@H](O)c2cc(Cl)ccc2O1 [Compound 292, (2R,4R)-6-chloro-4-hydroxy-N-[(3R,6S)-6-{5-[3-(trifluoromethoxy)cyclobutyl]-1,3-oxazol-2-yl}oxan-3-yl]-3,4-dihydro-2H-1-benzopyran-2-carboxamide]",< 10
3,"O=C(NC12CC(c3cn([C@H]4C[C@@H](OC(F)(F)F)C4)cn3)(C1)C2)[C@H]1C[C@@H](O)c2cc(Cl)ccc2O1 [Compound 294, (2R,4R)-6-chloro-4-hydroxy-N-(3-{1-[cis-3-(trifluoromethoxy)cyclobutyl]-1H-imidazol-4-yl}bicyclo[1.1.1]pentan-1-yl)-3,4-dihydro-2H-1-benzopyran-2-carboxamide]",10 to 50
4,"O=C(CO[C@H]1C[C@@H](OC(F)(F)F)C1)NC12CC(NC(=O)[C@@H]3C[C@H](O)c4cc(Cl)ccc4O3)(C1)C2 [Compound 295, (2S,4S)-6-chloro-4-hydroxy-N-[3-(2-{[cis-3-(trifluoromethoxy)cyclobutyl]oxy}acetamido)bicyclo[1.1.1]pentan-1-yl]-3,4-dihydro-2H-1-benzopyran-2-carboxamide]",10 to 50
5,"O=C(NC12CCC(c3ncc([C@H]4C[C@@H](OC(F)(F)F)C4)o3)(CC1)CC2)[C@H]1C[C@@H](O)c2cc(Cl)ccc2O1 [Compound 297, (2R,4R)-6-chloro-4-hydroxy-N-(4-{5-[cis-3-(trifluoromethoxy)cyclobutyl]-1,3-oxazol-2-yl}bicyclo[2.2.2]octan-1-yl)-3,4-dihydro-2H-1-benzopyran-2-carboxamide]",10 to 50
6,"O=C(NC12CC(c3ccn([C@H]4C[C@@H](OC(F)(F)F)C4)n3)(C1)C2)[C@H]1C[C@@H](O)c2cc(Cl)ccc2O1 [Compound 298, (2R,4R)-6-chloro-4-hydroxy-N-(3-{1-[cis-3-(trifluoromethoxy)cyclobutyl]-1H-pyrazol-3-yl}bicyclo[1.1.1]pentan-1-yl)-3,4-dihydro-2H-1-benzopyran-2-carboxamide]",50 to 250
7,"O=C(NC12CC(c3csc(O[C@H]4C[C@@H](OC(F)(F)F)C4)n3)(C1)C2)[C@H]1C[C@@H](O)c2cc(Cl)ccc2O1 [Compound 300, (2R,4R)-6-chloro-4-hydroxy-N-[3-(2-{[cis-3-(trifluoromethoxy)cyclobutyl]oxy}-1,3-thiazol-4-yl)bicyclo[1.1.1]pentan-1-yl]-3,4-dihydro-2H-1-benzopyran-2-carboxamide]",50 to 250
8,"O=C(NC12CC(Oc3nc([C@H]4C[C@@H](OC(F)(F)F)C4)cs3)(C1)C2)[C@H]1C[C@@H](O)c2cc(Cl)ccc2O1 [Compound 301, (2R,4R)-6-chloro-4-hydroxy-N-[3-({4-[cis-3-(trifluoromethoxy)cyclobutyl]-1,3-thiazol-2-yl}oxy)bicyclo[1.1.1]pentan-1-yl]-3,4-dihydro-2H-1-benzopyran-2-carboxamide]",500 to 2000
9,"O=C(NC12CC(n3cc(-c4ccc(OC(F)(F)F)cc4)cn3)(C1)C2)[C@H]1C[C@@H](O)c2cc(Cl)ccc2O1 [Compound 302, (2R,4R)-6-chloro-4-hydroxy-N-(3-{4-[4-(trifluoromethoxy)phenyl]-1H-pyrazol-1-yl}bicyclo[1.1.1]pentan-1-yl)-3,4-dihydro-2H-1-benzopyran-2-carboxamide]",< 10
10,"O=C(N[C@H]1CC[C@H](N2CCN(c3cnc(C(F)F)cn3)C2=O)CC1)[C@H]1C[C@@H](O)c2cc(Cl)ccc2O1 [Compound 303, (2R,4R)-6-chloro-N-[trans-4-{3-[5-(difluoromethyl)pyrazin-2-yl]-2-oxoimidazolidin-1-yl}cyclohexyl]-4-hydroxy-3,4-dihydro-2H-1-benzopyran-2-carboxamide]",50 to 250
11,"O=C(N[C@H]1C[C@H]2C[C@@H]1C[C@@H]2n1cnc(-c2ccc(F)c(F)c2)c1)[C@H]1C[C@@H](O)c2cc(Cl)ccc2O1 [Compound 304, (2R,4R)-6-chloro-N-{(1R,2S,4R,5S)-5-[4-(3,4-difluorophenyl)-1H-imidazol-1-yl]bicyclo[2.2.1]heptan-2-yl}-4-hydroxy-3,4-dihydro-2H-1-benzopyran-2-carboxamide]",< 10
12,"O=C(NC12CC(c3cnc(-c4ccc(Cl)c(F)c4)o3)(C1)C2)[C@H]1C[C@@H](O)c2cc(Cl)ccc2O1 [Compound 305, (2R,4R)-6-chloro-N-{3-[2-(4-chloro-3-fluorophenyl)-1,3-oxazol-5-yl]bicyclo[1.1.1]pentan-1-yl}-4-hydroxy-3,4-dihydro-2H-1-benzopyran-2-carboxamide]",< 10
13,"O=C(NC12CC(N3CC(c4ccc(Cl)cc4)CC3=O)(C1)C2)[C@H]1C[C@@H](O)c2cc(Cl)ccc2O1 (stereo partly drawn) [Compound 307, (2R,4R)-6-chloro-N-{3-[4-(4-chlorophenyl)-2-oxopyrrolidin-1-yl]bicyclo[1.1.1]pentan-1-yl}-4-hydroxy-3,4-dihydro-2H-1-benzopyran-2-carboxamide]",< 10
14,"O=C(NC12CC(n3cc(-c4ccc(OC(F)(F)F)cn4)cn3)(C1)C2)[C@H]1C[C@@H](O)c2cc(Cl)ccc2O1 [Compound 308, (2R,4R)-6-chloro-4-hydroxy-N-(3-{4-[5-(trifluoromethoxy)pyridin-2-yl]-1H-pyrazol-1-yl}bicyclo[1.1.1]pentan-1-yl)-3,4-dihydro-2H-1-benzopyran-2-carboxamide]",< 10
15,"O=C(N[C@H]1CC[C@H](N2CCN(c3ccc(C(F)(F)F)nc3)C2=O)CC1)[C@@H]1C[C@@H](O)c2cc(Cl)ccc2O1 [Compound 309, (2S,4R)-6-chloro-4-hydroxy-N-[trans-4-{2-oxo-3-[6-(trifluoromethyl)pyridin-3-yl]imidazolidin-1-yl}cyclohexyl]-3,4-dihydro-2H-1-benzopyran-2-carboxamide]",> 2000
16,O=C(N[C@H]1CC[C@H](N2CCN(c3ccc(C(F)(F)F)nc3)C2=O)CC1)[C@H]1C[C@@H](O)c2cc(Cl)ccc2O1 [Compound 310],50 to 250
